Assay [1] deals with human GABAA α2β2γ1 receptor (Homo sapiens (Human), UniProt P47869+Q8N1C3). The assay can be described thus: Radioligand binding assay, competition for [3H]RO7239181, membranes from HEK293F cells.
Assay [2] concerns the target human GABAA α5β2γ1 receptor (Homo sapiens (Human), UniProt P31644+Q8N1C3). The assay is described as above.
For assay [3], the target named is human GABAA α1β3γ2 receptor (Homo sapiens (Human), UniProt P14867+P18507). Description: Radioligand binding assay, competition for [3H]Flumazenil, HEK293F cells. Particulars: for γ2/γ1 Selectivity Ratio: Ki α1β3γ2 (nM)/Ki α2β2γ1 (nM); for LogSel: Log[Ki α1β3γ2 (nM)/Ki α2β2γ1 (nM)].
[4] abbreviates: read-out: Ki h-GABAA α2β2γ1, [3H]RO7239181 20-30 nM, HEK293F membranes, 1 hour at 4° C., mean of two determinations.

For orientation: Ki means a dissociation constant, usually derived from enzyme kinetics or from competition with a known ligand.

Like-named read-outs stand apart in the source and are kept apart here.

On to `Cc1nnc2n1-c1ccc(Cl)c(Cl)c1C(c1c(F)ccc(O)c1F)=NC2` [Example 13, 3-(7,8-dichloro-1-methyl-4H-[1,2,4]triazolo[4,3-a][1,4]benzodiazepin-6-yl)-2,4-difluoro-phenol], for which the Ki is 3.85 nM in assay [1], 3.85 nM in assay [1] (setting [4]), 0.4 nM in assay [2] and 72.6 nM in assay [3]. In addition, in assay [3], the “γ2/γ1 Selectivity Ratio” value was 18.8. Also, in assay [3], the LogSel stood at 1.28.

As to `O=c1ccn2c(n1)CN=C(c1c(F)ccc(O)c1F)c1c-2ccc(Cl)c1Cl` [Example 14, 8,9-dichloro-7-(2,6-difluoro-3-hydroxy-phenyl)-5H-pyrimido[1,2-a][1,4]benzodiazepin-3-one], the Ki in assay [1] worked out at 4.67 nM; in assay [1] (setting [4]), 4.67 nM; in assay [2], 0.85 nM; in assay [3], 74.6 nM. Further, the “γ2/γ1 Selectivity Ratio” value in assay [3] stood at 16.0. For the same molecule, the LogSel in assay [3] was determined as 1.20.

On to `COC1CN(C(=O)c2ncn3c2CN=C(c2cc(O)ccc2F)c2c-3ccc(C(F)(F)F)c2Cl)C1` [Example 15, [7-chloro-6-(2-fluoro-5-hydroxy-phenyl)-8-(trifluoromethyl)-4H-imidazo[1,5-a][1,4]benzodiazepin-3-yl]-(3-methoxyazetidin-1-yl)methanone], for which the Ki came to 4.18 nM in assay [1], 4.18 nM in assay [1] (setting [4]), 0.85 nM in assay [2] and 121 nM in assay [3]. Moreover, the “γ2/γ1 Selectivity Ratio” value in assay [3] is 28.9. In addition, in assay [3], the LogSel was found to be 1.46.

On to `COC1CN(C(=O)c2nc3n(n2)-c2ccc(C(F)(F)F)c(Cl)c2C(c2cc(O)ccc2F)=NC3)C1` [Example 16, [7-chloro-6-(2-fluoro-5-hydroxy-phenyl)-8-(trifluoromethyl)-4H-[1,2,4]triazolo[1,5-a][1,4]benzodiazepin-2-yl]-(3-methoxyazetidin-1-yl)methanone], for which the inhibition constant Ki in assay [1] is 3.6 nM; in assay [1] (setting [4]), 3.6 nM; in assay [2], 1.04 nM; in assay [3], 164 nM. For the same molecule, in assay [3], the “γ2/γ1 Selectivity Ratio” value is listed as 45.6. Moreover, the LogSel in assay [3] turned out to be 1.66.

`Cc1nnc2n1-c1ccc(C(F)(F)F)c(Cl)c1C(c1cc(O)ccc1F)=N[C@H]2C` [Example 17, 4-fluoro-3-[(4S)-7-chloro-1,4-dimethyl-8-(trifluoromethyl)-4H-[1,2,4]triazolo[4,3-a][1,4]benzodiazepin-6-yl]phenol]: the Ki in assay [1] is 1.75 nM; in assay [1] (setting [4]), 1.75 nM; in assay [2] it was 0.99 nM; in assay [3], 68.8 nM. Besides, the “γ2/γ1 Selectivity Ratio” value in assay [3] was 39.3. In assay [3], this molecule had a LogSel of 1.59.

In the case of `C[C@@H]1N=C(c2c(F)ccc(O)c2F)c2c(ccc(Cl)c2Cl)-n2ccc(=O)nc21` [Example 18, (5S)-8,9-dichloro-7-(2,6-difluoro-3-hydroxy-phenyl)-5-methyl-5H-pyrimido[1,2-a][1,4]benzodiazepin-3-one], the Ki in assay [1] was found to be 6.6 nM; in assay [1] (setting [4]), 6.6 nM; in assay [2], 1.3 nM; in assay [3], 255 nM. In assay [3], the “γ2/γ1 Selectivity Ratio” value was determined as 38.7. Also, the LogSel in assay [3] was 1.59.

`Cc1nnc2n1-c1ccc(C(F)(F)F)c(Cl)c1C(c1nc(O)ccc1F)=N[C@H]2C` [Example 20, 6-[(4S)-7-chloro-1,4-dimethyl-8-(trifluoromethyl)-4H-[1,2,4]triazolo[4,3-a][1,4]benzodiazepin-6-yl]-5-fluoro-pyridin-2-ol]: the Ki in assay [1] was 40.1 nM; in assay [1] (setting [4]) it was 40.1 nM; in assay [2] it was 5.02 nM; in assay [3] it was 11200 nM. In assay [3], the “γ2/γ1 Selectivity Ratio” value came out at 279.6. In addition, the LogSel in assay [3] was 2.45.

Consider `Cc1nnc2n1-c1ccc(C(F)(F)F)c(Cl)c1C(c1nc(O)ccc1Cl)=N[C@H]2C` [Example 22, 5-chloro-6-[(4S)-7-chloro-1,4-dimethyl-8-(trifluoromethyl)-4H-[1,2,4]triazolo[4,3-a][1,4]benzodiazepin-6-yl]pyridin-2-ol], for which the Ki in assay [1] stood at 13.7 nM; in assay [1] (setting [4]) it was 13.7 nM; in assay [2], 20.9 nM; in assay [3], 9690 nM. In addition, the “γ2/γ1 Selectivity Ratio” value in assay [3] was 704.8. In addition, the LogSel in assay [3] amounted to 2.85.

In the case of `Cc1cnc2n1-c1ccc(C(F)(F)F)c(Cl)c1C(c1nc(O)ccc1F)=N[C@H]2C` [Example 23, 6-[(4S)-7-chloro-1,4-dimethyl-8-(trifluoromethyl)-4H-imidazo[1,2-a][1,4]benzodiazepin-6-yl]-5-fluoro-pyridin-2-ol], the Ki in assay [1] stood at 8.88 nM; in assay [1] (setting [4]), 8.88 nM; in assay [2], 3.08 nM; in assay [3], 8010 nM. The “γ2/γ1 Selectivity Ratio” value in assay [3] worked out at 902.4. Besides, the LogSel in assay [3] stood at 2.96.

For `C[C@@H]1N=C(c2nc(O)ccc2F)c2c(ccc(C(F)(F)F)c2Cl)-n2c1nc1c2CCC1` [Example 24, 6-[(10S)-6-chloro-10-methyl-5-(trifluoromethyl)-1,9,12-triazatetracyclo[9.6.0.02,7.013,17]heptadeca-2(7),3,5,8,11,13(17)-hexaen-8-yl]-5-fluoro-pyridin-2-ol], the inhibition constant Ki turned out to be 6.61 nM in assay [1], 6.61 nM in assay [1] (setting [4]), 8.6 nM in assay [2] and 4190 nM in assay [3]. For the same molecule, the “γ2/γ1 Selectivity Ratio” value in assay [3] was 634.3. For the same molecule, the LogSel in assay [3] is reported as 2.80.

Regarding `Cc1nc2n(n1)-c1ccc(C(F)(F)F)c(Cl)c1C(c1nc(O)ccc1F)=N[C@H]2C` [Example 25, 6-[(4S)-7-chloro-2,4-dimethyl-8-(trifluoromethyl)-4H-[1,2,4]triazolo[1,5-a][1,4]benzodiazepin-6-yl]-5-fluoro-pyridin-2-ol], the Ki in assay [1] turned out to be 10.9 nM; in assay [1] (setting [4]) it was 10.9 nM; in assay [2], 2.32 nM; in assay [3], 10600 nM. The “γ2/γ1 Selectivity Ratio” value in assay [3] is recorded as 977.2. The LogSel in assay [3] worked out at 2.99.

For `Cc1cnc2n1-c1ccc(C(F)(F)F)c(Cl)c1C(c1nc(O)ccc1Cl)=N[C@H]2C` [Example 26, 5-chloro-6-[(4S)-7-chloro-1,4-dimethyl-8-(trifluoromethyl)-4H-imidazo[1,2-a][1,4]benzodiazepin-6-yl]pyridin-2-ol], the Ki in assay [1] came to 7.88 nM; in assay [1] (setting [4]), 7.88 nM; in assay [2], 3.25 nM; in assay [3], 6730 nM. Further, the “γ2/γ1 Selectivity Ratio” value in assay [3] came out at 853.7. Besides, the LogSel in assay [3] was 2.93.

As to `Cc1cn2c(n1)[C@H](C)N=C(c1nc(O)ccc1F)c1c-2ccc(C(F)(F)F)c1Cl` [Example 28, 6-[(4S)-7-chloro-2,4-dimethyl-8-(trifluoromethyl)-4H-imidazo[1,2-a][1,4]benzodiazepin-6-yl]-5-fluoro-pyridin-2-ol], the Ki is 5.28 nM in assay [1], 5.28 nM in assay [1] (setting [4]), 2.07 nM in assay [2] and 4080 nM in assay [3]. Also, in assay [3], the “γ2/γ1 Selectivity Ratio” value was 772.7. Moreover, the LogSel in assay [3] amounted to 2.89.

On to `Cc1nc2n(n1)-c1ccc(C(F)(F)F)c(Cl)c1C(c1nc(O)ccc1Cl)=N[C@H]2C` [Example 29, 5-chloro-6-[(4S)-7-chloro-2,4-dimethyl-8-(trifluoromethyl)-4H-[1,2,4]triazolo[1,5-a][1,4]benzodiazepin-6-yl]pyridin-2-ol], for which the Ki in assay [1] came to 7.7 nM; in assay [1] (setting [4]), 7.7 nM; in assay [2], 3.63 nM; in assay [3], 12000 nM. Besides, the “γ2/γ1 Selectivity Ratio” value in assay [3] came out at 1557.5. In assay [3], the LogSel stood at 3.19.

For `C[C@@H]1N=C(c2nc(O)ccc2F)c2c(ccc(C(F)(F)F)c2Cl)-n2cc(C(=O)N3CCC3)nc21` [Example 30, azetidin-1-yl-[(4S)-7-chloro-6-(3-fluoro-6-hydroxy-2-pyridyl)-4-methyl-8-(trifluoromethyl)-4H-imidazo[1,2-a][1,4]benzodiazepin-2-yl]methanone], the Ki worked out at 46.3 nM in assay [1], 46.3 nM in assay [1] (setting [4]), 8.77 nM in assay [2] and 13000 nM in assay [3]. Further, the “γ2/γ1 Selectivity Ratio” value in assay [3] turned out to be 280.8. Moreover, the LogSel in assay [3] came out at 2.45.
